Patent US8865698B2, “Method of treatment using substituted pyrazolo[1,5-a]pyrimidine compounds” (Array BioPharma Inc., priority 2008, dated 2014)
Where a name gives a salt, the structure may show the parent alone.

target: histidine-tagged recombinant human TrkA, cytoplasmic domain (Homo sapiens (Human), UniProt P04629); test: TrkA ELISA Assay; format: biochemical; settings: 2.5 nM TrkA, 500 μM ATP, 25 minutes; read-out: TrkA Elisa Enzyme IC50
Description: An enzyme-linked immunosorbant assay (ELISA) was used to assess TrkA kinase activity in the presence of inhibitors. Immulon 4HBX 384-well microtiter plates (Thermo part #8755) were coated with a 0.025 mg/mL solution of poly (Glu, Ala, Tyr; 6:3:1; Sigma P3899). Various concentrations of test compound, 2.5 nM TrkA (Invitrogen Corp., histidine-tagged recombinant human TrkA, cytoplasmic domain), and 500 μM ATP were incubated for 25 minutes at ambient temperature in the coated plates while shaking. The assay buffer consisted of 25 mM MOPS pH 7.5, 0.005% (v/v) Triton X-100 and 5 mM MgCl2. The reaction mixture was removed from the plate by washing with PBS containing 0.1% (v/v) Tween 20. The phosphorylated reaction product was detected using 0.2 μg/mL of a phosphotyrosine specific monoclonal antibody (clone PY20) conjugated to horseradish peroxidase in conjunction with the TMB Peroxidase Substrate System (KPL). After the addition of 1M phosphoric acid, the chromogenic substrate color intensity was quantitated via absorbance at 450 nm. IC50 values were calculated using either a 4 or 5-parameter logistic curve fit.

histidine-tagged recombinant human TrkA, cytoplasmic domain, sequence (P04629 440-796): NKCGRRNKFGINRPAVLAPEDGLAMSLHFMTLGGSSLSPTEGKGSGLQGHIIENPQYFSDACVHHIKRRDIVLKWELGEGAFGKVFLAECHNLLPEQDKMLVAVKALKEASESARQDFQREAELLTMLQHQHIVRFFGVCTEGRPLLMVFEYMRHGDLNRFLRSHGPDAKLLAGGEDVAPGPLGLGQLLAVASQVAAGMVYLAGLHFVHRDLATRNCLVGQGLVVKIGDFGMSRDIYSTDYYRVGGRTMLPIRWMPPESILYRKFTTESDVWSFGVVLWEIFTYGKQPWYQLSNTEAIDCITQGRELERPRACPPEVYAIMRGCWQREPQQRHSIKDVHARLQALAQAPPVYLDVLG

Structure (SMILES)	IC50
O=C(Nc1cnn2ccc(N3CCC[C@@H]3c3cc(F)ccc3F)nc12)N1CC(O)C1 [Example 1, (R)—N-(5-(2-(2,5-difluorophenyl)pyrrolidin-1-yl)pyrazolo[1,5-a]pyrimidin-3-yl)-3-hydroxyazetidine-1-carboxamide]	20.7 nM
CN(C)C(=O)Nc1cnn2ccc(N3CCC[C@@H]3c3cc(F)ccc3F)nc12 [Example 2, (R)-3-(5-(2-(2,5-difluorophenyl)pyrrolidin-1-yl)pyrazolo[1,5-a]pyrimidin-3-yl)-1,1-dimethylurea]	15.8 nM
CC(C)(C)NC(=O)Nc1cnn2ccc(N3CCC[C@@H]3c3cc(F)ccc3F)nc12 [Example 3, (R)-1-tert-butyl-3-(5-(2-(2,5-difluorophenyl)pyrrolidin-1-yl)pyrazolo[1,5-a]pyrimidin-3-yl)urea]	22.2 nM
O=C(Nc1ccccc1)Nc1cnn2ccc(N3CCC[C@@H]3c3cc(F)ccc3F)nc12 [Example 4, (R)-1-(5-(2-(2,5-difluorophenyl)pyrrolidin-1-yl)pyrazolo[1,5-a]pyrimidin-3-yl)-3-phenylurea]	5 nM
CC(C)C(=O)Nc1cnn2ccc(N3CCC[C@@H]3c3cc(F)ccc3F)nc12 [Example 5, (R)—N-(5-(2-(2,5-difluorophenyl)pyrrolidin-1-yl)pyrazolo[1,5-a]pyrimidin-3-yl)isobutyramide]	12.1 nM
Cn1nc(C(=O)Nc2cnn3ccc(N4CCC[C@@H]4c4cccc(F)c4)nc23)ccc1=O [Example 6, (R)—N-(5-(2-(3-fluorophenyl)pyrrolidin-1-yl)pyrazolo[1,5-a]pyrimidin-3-yl)-1-methyl-6-oxo-1,6-dihydropyridazine-3-carboxamide]	19.2 nM
O=C(Nc1cnn2ccc(N3CC(F)(F)C[C@@H]3c3cccc(F)c3)nc12)N1CC(O)C1 [Example 7, (R)—N-(5-(4,4-difluoro-2-(3-fluorophenyl)pyrrolidin-1-yl)pyrazolo[1,5-a]pyrimidin-3-yl)-3-hydroxyazetidine-1-carboxamide]	77.5 nM
O=C(Nc1cnn2ccc(N3CCC[C@@H]3c3cc(F)ccc3Cl)nc12)N1CC(O)C1 [Example 8, (R)—N-(5-(2-(2-chloro-5-fluorophenyl)pyrrolidin-1-yl)pyrazolo[1,5-a]pyrimidin-3-yl)-3-hydroxyazetidine-1-carboxamide]	13.7 nM
O=C(Nc1cnn2ccc(N3CCC[C@@H]3c3cccc(F)c3)nc12)N1CCOCC1 [Example 9, (R)—N-(5-(2-(3-fluorophenyl)pyrrolidin-1-yl)pyrazolo[1,5-a]pyrimidin-3-yl)morpholine-4-carboxamide]	821 nM
CC1(c2cccc(F)c2)CCCN1c1ccn2ncc(NC(=O)N3CC(O)C3)c2n1 (stereo not shown) [Example 10, N-(5-(2-(3-fluorophenyl)-2-methylpyrrolidin-1-yl)pyrazolo[1,5-a]pyrimidin-3-yl)-3-hydroxyazetidine-1-carboxamide]	188 nM
O=C(Nc1cnn2ccc(N3CCC[C@@H]3c3cc(F)cc(Cl)c3)nc12)N1CC(O)C1 [Example 11, (R)—N-(5-(2-(3-chloro-5-fluorophenyl)pyrrolidin-1-yl)pyrazolo[1,5-a]pyrimidin-3-yl)-3-hydroxyazetidine-1-carboxamide]	171 nM
O=C(Nc1cnn2ccc(N3CCC[C@@H]3c3cc(F)ccc3C(F)F)nc12)N1CC(O)C1 [Example 12, (R)—N-(5-(2-(2-(difluoromethyl)-5-fluorophenyl)pyrrolidin-1-yl)pyrazolo[1,5-a]pyrimidin-3-yl)-3-hydroxyazetidine-1-carboxamide]	26.5 nM
O=C(Nc1cnn2ccc(N3CCC[C@@H]3c3cc(F)ccc3F)nc12)N1CCOCC1 [Example 13, (R)—N-(5-(2-(2,5-difluorophenyl)pyrrolidin-1-yl)pyrazolo[1,5-a]pyrimidin-3-yl)morpholine-4-carboxamide]	32.2 nM
O=C(Nc1cnn2ccc(N3CCC[C@@H]3c3cc(F)ccc3F)nc12)N1C[C@@H](O)[C@H](O)C1 [Example 15, (3R,4R)—N-(5-((R)-2-(2,5-difluorophenyl)pyrrolidin-1-yl)pyrazolo[1,5-a]pyrimidin-3-yl)-3,4-dihydroxypyrrolidine-1-carboxamide]	13.3 nM
COC1CN(C(=O)Nc2cnn3ccc(N4CCC[C@@H]4c4cc(F)ccc4F)nc23)C1 [Example 16, (R)—N-(5-(2-(2,5-difluorophenyl)pyrrolidin-1-yl)pyrazolo[1,5-a]pyrimidin-3-yl)-3-methoxyazetidine-1-carboxamide]	27.5 nM
CC1(O)CN(C(=O)Nc2cnn3ccc(N4CCC[C@@H]4c4cc(F)ccc4F)nc23)C1 [Example 17, (R)—N-(5-(2-(2,5-difluorophenyl)pyrrolidin-1-yl)pyrazolo[1,5-a]pyrimidin-3-yl)-3-hydroxy-3-methylazetidine-1-carboxamide]	19.7 nM

Structure (SMILES)	IC50
O=C(Nc1ccc(F)cc1)Nc1cnn2ccc(N3CCC[C@@H]3c3cc(F)ccc3F)nc12 [Example 18, (R)-1-(5-(2-(2,5-difluorophenyl)pyrrolidin-1-yl)pyrazolo[1,5-a]pyrimidin-3-yl)-3-(4-fluorophenyl)urea]	4.6 nM
O=C(Nc1ccc(Cl)cc1)Nc1cnn2ccc(N3CCC[C@@H]3c3cc(F)ccc3F)nc12 [Example 19, (R)-1-(4-chlorophenyl)-3-(5-(2-(2,5-difluorophenyl)pyrrolidin-1-yl)pyrazolo[1,5-a]pyrimidin-3-yl)urea]	10.1 nM
COc1ccc(NC(=O)Nc2cnn3ccc(N4CCC[C@@H]4c4cc(F)ccc4F)nc23)cc1 [Example 20, (R)-1-(5-(2-(2,5-difluorophenyl)pyrrolidin-1-yl)pyrazolo[1,5-a]pyrimidin-3-yl)-3-(4-methoxyphenyl)urea]	4.8 nM
COC1CN(C(=O)Nc2cnn3ccc(N4CCC[C@@H]4c4cc(F)ccc4Cl)nc23)C1 [Example 21, (R)—N-(5-(2-(2-chloro-5-fluorophenyl)pyrrolidin-1-yl)pyrazolo[1,5-a]pyrimidin-3-yl)-3-methoxyazetidine-1-carboxamide]	27.9 nM
CC1(O)CN(C(=O)Nc2cnn3ccc(N4CCC[C@@H]4c4cc(F)ccc4Cl)nc23)C1 [Example 22, (R)—N-(5-(2-(2-chloro-5-fluorophenyl)pyrrolidin-1-yl)pyrazolo[1,5-a]pyrimidin-3-yl)-3-hydroxy-3-methylazetidine-1-carboxamide]	11.5 nM
O=C(Nc1cnn2ccc(N3CCC[C@@H]3c3cc(F)ccc3Cl)nc12)N1CCOCC1 [Example 23, (R)—N-(5-(2-(2-chloro-5-fluorophenyl)pyrrolidin-1-yl)pyrazolo[1,5-a]pyrimidin-3-yl)morpholine-4-carboxamide]	41.7 nM
C[C@H]1CN(C(=O)Nc2cnn3ccc(N4CCC[C@@H]4c4cc(F)ccc4Cl)nc23)CCN1C(=O)OC(C)(C)C [Example 24, (S)-tert-butyl 4-(5-((R)-2-(2-chloro-5-fluorophenyl)pyrrolidin-1-yl)pyrazolo[1,5-a]pyrimidin-3-ylcarbamoyl)-2-methylpiperazine-1-carboxylate]	55 nM
C[C@H]1CN(C(=O)Nc2cnn3ccc(N4CCC[C@@H]4c4cc(F)ccc4Cl)nc23)CCN1 [Example 25, (S)—N-(5-((R)-2-(2-chloro-5-fluorophenyl)pyrrolidin-1-yl)pyrazolo[1,5-a]pyrimidin-3-yl)-3-methylpiperazine-1-carboxamide hydrochloride]	82.3 nM
CC(C)N1CCN(C(=O)Nc2cnn3ccc(N4CCC[C@@H]4c4cc(F)ccc4F)nc23)CC1 [Example 26, (R)—N-(5-(2-(2,5-difluorophenyl)pyrrolidin-1-yl)pyrazolo[1,5-a]pyrimidin-3-yl)-4-isopropylpiperazine-1-carboxamide]	45 nM
CCN1CCN(C(=O)Nc2cnn3ccc(N4CCC[C@@H]4c4cc(F)ccc4F)nc23)CC1 [Example 27, (R)—N-(5-(2-(2,5-difluorophenyl)pyrrolidin-1-yl)pyrazolo[1,5-a]pyrimidin-3-yl)-4-ethylpiperazine-1-carboxamide]	107 nM
CN1CCN(C(=O)Nc2cnn3ccc(N4CCC[C@@H]4c4cc(F)ccc4F)nc23)CC1 [Example 28, (R)—N-(5-(2-(2,5-difluorophenyl)pyrrolidin-1-yl)pyrazolo[1,5-a]pyrimidin-3-yl)-4-methylpiperazine-1-carboxamide]	57.4 nM
CC1CN(C(=O)Nc2cnn3ccc(N4CCC[C@@H]4c4cc(F)ccc4F)nc23)CC(C)N1 (stereo partly shown) [Example 29]	98 nM
C[C@H]1CN(C(=O)Nc2cnn3ccc(N4CCC[C@@H]4c4cc(F)ccc4F)nc23)CCN1C(=O)OC(C)(C)C [Example 30, (S)-tert-butyl 4-(5-((R)-2-(2,5-difluorophenyl)pyrrolidin-1-yl)pyrazolo[1,5-a]pyrimidin-3-ylcarbamoyl)-2-methylpiperazine-1-carboxylate]	154 nM
C[C@H]1CN(C(=O)Nc2cnn3ccc(N4CCC[C@@H]4c4cc(F)ccc4F)nc23)CCN1 [Example 31, (S)—N-(5-((R)-2-(2,5-difluorophenyl)pyrrolidin-1-yl)pyrazolo[1,5-a]pyrimidin-3-yl)-3-methylpiperazine-1-carboxamide hydrochloride]	88.3 nM
O=C(Nc1cnn2ccc(N3CCC[C@@H]3c3cccc(F)c3)nc12)N1CC(O)C1 [Example 32, (R)—N-(5-(2-(3-fluorophenyl)pyrrolidin-1-yl)pyrazolo[1,5-a]pyrimidin-3-yl)-3-hydroxyazetidine-1-carboxamide]	116 nM
